Tested on: KRAS patient-derived spheroids with HUVEC/MSC, viability
Assay: Anticancer human tumor 941728-121-R-J1-PDC patient-derived lung adenocarcinoma cell line growth inhibition [KRAS2]
Settings: for IC50: curve of first compound; for viability, T/C: stronger effect = lower value
Excerpt: Multicellular complex tumor spheroid response to RAS pathway inhibitors in combination with a targeted agents in patient-derived cell lines with oncogenic KRAS variants from multiple cancer types
A high-throughput screen of multi-cell type tumor spheroids was designed to identify active combinations of targeted small molecules and KRAS pathway inhibitors. Complex spheroids include a stromal component modeled by human endothelial cells (HUVEC) and fibroblasts modeled by human mesenchymal stem cells (MSCs). The concentration ranges selected for each drug and investigational agent were based upon clinically achievable concentrations if the clinical Cmax of the agent was known.
Compounds. The drugs and investigational agents: BI-3406 (NSC825286), BAY-293 (NSC824723), batoprotafib (TNO155; NSC825523), sotorasib (AMG 510; NSC818433), MRTX1257 (NSC819558), elimusertib (BAY 1895344; NSC800525), molibresib (GSK525762; NSC774829), temuterkib (LY3214996; NSC803410), venetoclax (NSC766270), alisertib (NSC759677), olaparib (NSC753686), talazoparib (NSC767125), erdafitinib (NSC781556), ipatasertib (NSC767898), cabozantinib (NSC761068), nintedanib (NSC756659), abemaciclib (NSC768073), docetaxel (NSC628503), trametinib (NSC758246), and sapanisertib (NSC764658) were obtained from the National Cancer Institute (NCI) Developmental Therapeutics Program Chemical Repository. The FDA-approved anticancer drug set is available from the Developmental Therapeutics Program. […] The stock solutions were prepared in dimethyl sulfoxide (DMSO, Sigma-Aldrich, St. Louis, MO, cat. D2650) at 800-fold the tested concentration and stored at -70 degrees C prior to their use. All drugs and investigational agents were tested over a range starting from a high concentration at or near the clinical Cmax and decreasing in half-log increments. If the clinical Cmax for an agent had not been determined, the highest concentration tested was 10 microM.
Cell Culture. All cells were maintained in an incubator at 37 degrees C and 5% CO2 with 95% humidity. The PDC lines were cultured according to standard operating procedures established by the NCI PDMR (https://pdmr.cancer.gov/sops/default.htm). Briefly, all PDCs were thawed and cultured in Matrigel-coated flasks prepared with a working solution of 1X Ham's F-12 nutrient mix, without supplementation (Invitrogen, Waltham, MA, cat. 11765054), 100 U/mL penicillin-streptomycin (Invitrogen, cat. 15140122), and 2.5% Matrigel (Corning Inc., Corning, NY, cat. 354248) for the first three passages. All PDCs were cultured in complete DMEM/F-12 media containing advanced DMEM/F-12 (Invitrogen, cat. 12634028), 4.9% defined fetal bovine serum, heat inactivated (HyClone Laboratories Inc., Logan, UT, cat. SH30070.03HI), 389 ng/mL hydrocortisone (Sigma-Aldrich, cat. H4001), 9.7 ng/mL human EGF recombinant protein (Invitrogen, cat. PHG0313), 23.4 microg/mL adenine (Sigma-Aldrich, cat. A2786), 97.3 U/mL penicillin-streptomycin (Invitrogen, cat. 15140122), 1.9 mM L-glutamine (Invitrogen, cat. 25030081), and 9.7 microM Y-27632 dihydrochloride (Tocris Bioscience, Bristol, United Kingdom, cat. 1254). The PDCs were cultured in complete DMEM/F12 media without 9.7 microM Y-27632 dihydrochloride for at least two passages prior to the screen. The established cell line HOP-62 was cultured in RPMI 1640 medium, HEPES (Invitrogen, cat. 22400105) with 10% defined fetal bovine serum (HyClone Laboratories Inc., cat. SH30070.03) and 2 mM L-glutamine (Invitrogen, cat. 25030081). The pooled donor HUVEC were cultured in endothelial cell growth medium 2 (PromoCell, Heidelberg, Germany, cat. C-22011) and the hMSC were cultured in mesenchymal stem cell growth medium 2 (PromoCell, cat. C-28009). For all experiments, HUVEC and hMSC were used at passages </=5, while the malignant cell lines were used at passages </=15. […]

[1] = second compound 0.1 µM, first compound 0.0316 µM
[2] = second compound 0.1 µM, first compound 0.1 µM
[3] = second compound 0.1 µM, first compound 0.316 µM
[4] = second compound 0.1 µM, first compound 1 µM
[5] = second compound 0.1 µM, first compound 3.16 µM
[6] = second compound 0.1 µM, first compound 10 µM
[7] = second compound 0.316 µM, first compound 0.0316 µM
[8] = second compound 0.316 µM, first compound 0.1 µM
[9] = second compound 0.316 µM, first compound 0.316 µM
[10] = second compound 0.316 µM, first compound 1 µM
[11] = second compound 0.316 µM, first compound 3.16 µM
[12] = second compound 0.316 µM, first compound 10 µM
[13] = second compound 1 µM, first compound 0.0316 µM
[14] = second compound 1 µM, first compound 0.1 µM
[15] = second compound 1 µM, first compound 0.316 µM
[16] = second compound 1 µM, first compound 1 µM
[17] = second compound 1 µM, first compound 3.16 µM
[18] = second compound 1 µM, first compound 10 µM
[19] = second compound 3.16 µM, first compound 0.0316 µM
[20] = second compound 3.16 µM, first compound 0.1 µM
[21] = second compound 3.16 µM, first compound 0.316 µM
[22] = second compound 3.16 µM, first compound 1 µM
[23] = second compound 3.16 µM, first compound 3.16 µM
[24] = second compound 3.16 µM, first compound 10 µM
[25] = second compound 10 µM, first compound 0.0316 µM
[26] = second compound 10 µM, first compound 0.1 µM
[27] = second compound 10 µM, first compound 0.316 µM
[28] = second compound 10 µM, first compound 1 µM
[29] = second compound 10 µM, first compound 3.16 µM
[30] = second compound 10 µM, first compound 10 µM
[31] = second compound 0.1 µM, first compound 0.00316 µM
[32] = second compound 0.1 µM, first compound 0.01 µM
[33] = second compound 0.316 µM, first compound 0.00316 µM
[34] = second compound 0.316 µM, first compound 0.01 µM
[35] = second compound 1 µM, first compound 0.00316 µM
[36] = second compound 1 µM, first compound 0.01 µM
[37] = second compound 3.16 µM, first compound 0.00316 µM
[38] = second compound 3.16 µM, first compound 0.01 µM
[39] = second compound 10 µM, first compound 0.00316 µM
[40] = second compound 10 µM, first compound 0.01 µM
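Note: spheroids exposed to agents for seven days before readout.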

Compound	IC50 (second compound 0.1 µM) [µM]	IC50 (second compound 0.316 µM) [µM]	IC50 (second compound 1 µM) [µM]	IC50 (second compound 3.16 µM) [µM]	IC50 (second compound 10 µM) [µM]	viability, T/C [1] [%]	viability, T/C [2] [%]	viability, T/C [3] [%]	viability, T/C [4] [%]	viability, T/C [7] [%]	viability, T/C [8] [%]	viability, T/C [9] [%]	viability, T/C [10] [%]	viability, T/C [13] [%]	viability, T/C [14] [%]	viability, T/C [15] [%]	viability, T/C [19] [%]	viability, T/C [20] [%]	viability, T/C [25] [%]	viability, T/C [26] [%]	other results
CC(C)NCC(C(=O)N1CCN(c2ncnc3c2C(C)CC3O)CC1)c1ccc(Cl)cc1 (stereo not given) + C=CC(=O)N1CCN(c2nc(=O)n(-c3c(C)ccnc3C(C)C)c3nc(-c4c(O)cccc4F)c(F)cc23)C(C)C1	< 0.0316	< 0.0316	< 0.0316	< 0.0316	< 0.0316	19.7	20.1	19.6	15.3	24.7	19.5	20	15.2	22.6	22.4	13.9	24.1	25.8	25.9	21.5	viability, T/C [5]: 9.91%; viability, T/C [6]: 4.14%; viability, T/C [11]: 9.83%; viability, T/C [12]: 4.08%; viability, T/C [16]: 16%; viability, T/C [17]: 12%; viability, T/C [18]: 5.09%; viability, T/C [21]: 20.3%; viability, T/C [22]: 16%; viability, T/C [23]: 10.6%; viability, T/C [24]: 4.7%; viability, T/C [27]: 18.6%; viability, T/C [28]: 14.9%; viability, T/C [29]: 6.4%; viability, T/C [30]: 4.57%
CC1(C)CCC(CN2CCN(c3ccc(C(=O)NS(=O)(=O)c4ccc(NCC5CCOCC5)c([N+](=O)[O-])c4)c(Oc4cnc5[nH]ccc5c4)c3)CC2)=C(c2ccc(Cl)cc2)C1 + C=CC(=O)N1CCN(c2nc(=O)n(-c3c(C)ccnc3C(C)C)c3nc(-c4c(O)cccc4F)c(F)cc23)C(C)C1	< 0.0316	< 0.0316	< 0.0316	< 0.0316	< 0.0316	20.2	17.6	17.8	17.4	18.6	16.1	16.4	16.3	20.8	19.7	29.4	19.3	16.4	25.3	24.8	viability, T/C [5]: 7.67%; viability, T/C [6]: 2.7%; viability, T/C [11]: 9.65%; viability, T/C [12]: 4.02%; viability, T/C [16]: 17%; viability, T/C [17]: 13.2%; viability, T/C [18]: 4.29%; viability, T/C [21]: 22.5%; viability, T/C [22]: 18.2%; viability, T/C [23]: 15.2%; viability, T/C [24]: 4.62%; viability, T/C [27]: 25.7%; viability, T/C [28]: 22.4%; viability, T/C [29]: 8.54%; viability, T/C [30]: 8.81%
CCN1CCN(Cc2ccc(Nc3ncc(F)c(-c4cc(F)c5nc(C)n(C(C)C)c5c4)n3)nc2)CC1 + C=CC(=O)N1CCN(c2nc(=O)n(-c3c(C)ccnc3C(C)C)c3nc(-c4c(O)cccc4F)c(F)cc23)C(C)C1	< 0.00316	< 0.00316	< 0.00316	< 0.00316	< 0.00316	16.5	15.9	15.1	18.5	17.1	16.8	14.7	15.9	19.5	17.1	17.2	19.6	18.9	25	29.8	viability, T/C [31]: 17.4%; viability, T/C [32]: 18.3%; viability, T/C [33]: 19.1%; viability, T/C [34]: 18.1%; viability, T/C [35]: 22.2%; viability, T/C [36]: 22.2%; viability, T/C [16]: 19.8%; viability, T/C [37]: 22.7%; viability, T/C [38]: 24.2%; viability, T/C [21]: 21.9%; viability, T/C [22]: 19.2%; viability, T/C [39]: 27.8%; viability, T/C [40]: 29.9%; viability, T/C [27]: 27.9%; viability, T/C [28]: 16.3%
Cn1ncnc1[C@H]1c2n[nH]c(=O)c3cc(F)cc(c23)N[C@@H]1c1ccc(F)cc1 + C=CC(=O)N1CCN(c2nc(=O)n(-c3c(C)ccnc3C(C)C)c3nc(-c4c(O)cccc4F)c(F)cc23)C(C)C1	< 0.000316	< 0.000316	< 0.000316	< 0.000316	< 0.000316	13.5	13.9	–	–	14.1	14.1	–	–	15.9	15.2	–	13.6	14.9	18.1	16.7	viability, T/C (second compound 0.1 µM, first compound 0.000316 µM): 14.7%; viability, T/C (second compound 0.1 µM, first compound 0.001 µM): 15.4%; viability, T/C [31]: 13.9%; viability, T/C [32]: 13.6%; viability, T/C (second compound 0.316 µM, first compound 0.000316 µM): 17.4%; viability, T/C (second compound 0.316 µM, first compound 0.001 µM): 14.9%; viability, T/C [33]: 15.3%; viability, T/C [34]: 14.8%; viability, T/C (second compound 1 µM, first compound 0.000316 µM): 16%; viability, T/C (second compound 1 µM, first compound 0.001 µM): 15.5%; viability, T/C [35]: 17.6%; viability, T/C [36]: 15.9%; viability, T/C (second compound 3.16 µM, first compound 0.000316 µM): 15.8%; viability, T/C (second compound 3.16 µM, first compound 0.001 µM): 18.3%; viability, T/C [37]: 15.4%; viability, T/C [38]: 17.4%; viability, T/C (second compound 10 µM, first compound 0.000316 µM): 17.9%; viability, T/C (second compound 10 µM, first compound 0.001 µM): 20.1%; viability, T/C [39]: 17.3%; viability, T/C [40]: 17.3%
